In ChEMBL document CHEMBL3991601, “The target landscape of clinical kinase drugs” (Science, 2017):
Active and inactive are the calls of the source.

Legend:
[1] = biological target: T1, EKC/KEOPS complex subunit TP53RK (Homo sapiens, UniProt Q96S44)
T1 sequence (Q96S44 whole entry): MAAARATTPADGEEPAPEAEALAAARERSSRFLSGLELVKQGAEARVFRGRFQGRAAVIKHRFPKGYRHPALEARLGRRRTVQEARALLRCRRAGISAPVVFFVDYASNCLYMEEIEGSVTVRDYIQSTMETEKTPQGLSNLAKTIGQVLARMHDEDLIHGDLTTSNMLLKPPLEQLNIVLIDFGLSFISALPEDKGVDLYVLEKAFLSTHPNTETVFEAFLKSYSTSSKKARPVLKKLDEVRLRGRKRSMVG

[2] = biological target: cAMP-dependent protein kinase type II-alpha regulatory subunit (Homo sapiens, UniProt P13861)
[3] = biological target: Protein kinase C beta type (Homo sapiens, UniProt P05771)
[4] = biological target: T2, DNA replication licensing factor MCM4 (Homo sapiens, UniProt P33991)
T2 sequence (P33991 whole entry): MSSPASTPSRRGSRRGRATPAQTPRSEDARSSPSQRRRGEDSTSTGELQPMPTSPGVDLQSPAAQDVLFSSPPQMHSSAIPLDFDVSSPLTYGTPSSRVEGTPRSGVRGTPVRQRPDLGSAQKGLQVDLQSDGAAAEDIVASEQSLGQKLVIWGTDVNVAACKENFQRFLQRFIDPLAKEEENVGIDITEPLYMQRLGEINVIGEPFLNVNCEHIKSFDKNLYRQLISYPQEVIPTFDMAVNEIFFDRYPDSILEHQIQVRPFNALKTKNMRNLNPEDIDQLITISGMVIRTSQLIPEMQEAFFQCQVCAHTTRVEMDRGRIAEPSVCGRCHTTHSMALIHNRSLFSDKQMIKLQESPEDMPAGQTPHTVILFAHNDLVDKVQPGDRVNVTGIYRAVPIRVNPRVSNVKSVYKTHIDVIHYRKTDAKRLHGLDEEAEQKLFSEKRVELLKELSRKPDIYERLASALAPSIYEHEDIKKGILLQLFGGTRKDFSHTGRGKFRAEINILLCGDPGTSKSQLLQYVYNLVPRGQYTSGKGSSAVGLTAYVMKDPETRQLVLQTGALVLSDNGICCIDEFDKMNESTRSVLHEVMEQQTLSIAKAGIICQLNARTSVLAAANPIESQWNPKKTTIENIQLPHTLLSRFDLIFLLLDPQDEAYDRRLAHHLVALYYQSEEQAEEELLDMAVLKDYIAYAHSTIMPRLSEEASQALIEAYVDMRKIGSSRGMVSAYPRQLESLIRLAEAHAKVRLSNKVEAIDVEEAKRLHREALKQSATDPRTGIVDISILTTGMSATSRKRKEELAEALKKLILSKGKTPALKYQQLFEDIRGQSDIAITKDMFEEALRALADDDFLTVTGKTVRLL

[5] = biological target: Serine/threonine-protein kinase 10 (Homo sapiens, UniProt O94804)
[6] = biological target: Tyrosine-protein kinase JAK1 (Homo sapiens, UniProt P23458)
[7] = biological target: T3, Inhibitor of nuclear factor kappa-B kinase subunit epsilon (Homo sapiens, UniProt Q14164)
T3 sequence (Q14164 whole entry): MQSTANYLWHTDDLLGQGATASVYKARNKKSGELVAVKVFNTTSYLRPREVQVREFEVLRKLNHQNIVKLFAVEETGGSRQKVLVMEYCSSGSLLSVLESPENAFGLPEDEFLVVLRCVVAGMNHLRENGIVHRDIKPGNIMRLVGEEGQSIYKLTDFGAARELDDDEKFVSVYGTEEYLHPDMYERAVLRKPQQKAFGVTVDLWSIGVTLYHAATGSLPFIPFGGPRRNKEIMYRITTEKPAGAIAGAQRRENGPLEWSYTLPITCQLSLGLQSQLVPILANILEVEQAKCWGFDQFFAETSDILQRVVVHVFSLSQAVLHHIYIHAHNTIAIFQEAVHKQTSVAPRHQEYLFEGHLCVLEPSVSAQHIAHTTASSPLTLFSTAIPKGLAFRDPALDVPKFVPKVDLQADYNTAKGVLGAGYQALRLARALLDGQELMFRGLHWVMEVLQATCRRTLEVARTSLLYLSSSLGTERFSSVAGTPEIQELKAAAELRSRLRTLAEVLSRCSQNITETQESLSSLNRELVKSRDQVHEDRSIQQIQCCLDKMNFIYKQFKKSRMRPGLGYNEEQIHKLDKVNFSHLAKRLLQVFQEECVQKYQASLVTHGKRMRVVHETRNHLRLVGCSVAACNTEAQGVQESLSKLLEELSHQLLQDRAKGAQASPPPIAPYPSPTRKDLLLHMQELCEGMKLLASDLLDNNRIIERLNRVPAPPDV

[8] = biological target: Serine/threonine-protein kinase MRCK alpha (Homo sapiens, UniProt Q5VT25)
[9] = biological target: T4, Scaffold protein ILK (Homo sapiens, UniProt Q13418)
T4 sequence (Q13418 whole entry): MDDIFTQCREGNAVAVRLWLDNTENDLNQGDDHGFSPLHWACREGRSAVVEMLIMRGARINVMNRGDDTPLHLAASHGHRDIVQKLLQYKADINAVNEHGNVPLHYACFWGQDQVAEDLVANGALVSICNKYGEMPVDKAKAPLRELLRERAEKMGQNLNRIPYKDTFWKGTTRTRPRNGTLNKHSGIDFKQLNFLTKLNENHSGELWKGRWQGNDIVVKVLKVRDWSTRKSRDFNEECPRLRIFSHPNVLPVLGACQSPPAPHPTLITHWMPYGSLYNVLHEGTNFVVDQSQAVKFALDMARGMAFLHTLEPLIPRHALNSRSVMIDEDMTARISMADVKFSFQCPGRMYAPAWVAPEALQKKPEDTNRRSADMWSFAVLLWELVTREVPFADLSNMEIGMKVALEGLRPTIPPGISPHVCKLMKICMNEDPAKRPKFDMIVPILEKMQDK

[10] = biological target: 26S proteasome regulatory subunit 6B (Homo sapiens, UniProt P43686)
[11] = biological target: Actin-related protein 2 (Homo sapiens, UniProt P61160)
[12] = biological target: Casein kinase I isoform delta (Homo sapiens, UniProt P48730)
Further: in the data inactive means no Kd found up to 30 µM.

Sequence of 26S proteasome regulatory subunit 6B (P43686 whole entry): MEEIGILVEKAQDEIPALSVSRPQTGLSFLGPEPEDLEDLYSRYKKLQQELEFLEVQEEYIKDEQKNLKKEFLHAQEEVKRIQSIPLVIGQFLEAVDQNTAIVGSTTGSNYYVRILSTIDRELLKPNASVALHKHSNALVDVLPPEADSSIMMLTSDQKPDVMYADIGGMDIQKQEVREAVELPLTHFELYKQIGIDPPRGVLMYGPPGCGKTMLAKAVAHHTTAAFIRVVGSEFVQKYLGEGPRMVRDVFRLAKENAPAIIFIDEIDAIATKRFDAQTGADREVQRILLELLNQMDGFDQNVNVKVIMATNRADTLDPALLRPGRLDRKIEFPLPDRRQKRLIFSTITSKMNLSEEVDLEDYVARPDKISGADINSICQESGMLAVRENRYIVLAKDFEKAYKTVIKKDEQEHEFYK
Sequence of Protein kinase C beta type (P05771 whole entry): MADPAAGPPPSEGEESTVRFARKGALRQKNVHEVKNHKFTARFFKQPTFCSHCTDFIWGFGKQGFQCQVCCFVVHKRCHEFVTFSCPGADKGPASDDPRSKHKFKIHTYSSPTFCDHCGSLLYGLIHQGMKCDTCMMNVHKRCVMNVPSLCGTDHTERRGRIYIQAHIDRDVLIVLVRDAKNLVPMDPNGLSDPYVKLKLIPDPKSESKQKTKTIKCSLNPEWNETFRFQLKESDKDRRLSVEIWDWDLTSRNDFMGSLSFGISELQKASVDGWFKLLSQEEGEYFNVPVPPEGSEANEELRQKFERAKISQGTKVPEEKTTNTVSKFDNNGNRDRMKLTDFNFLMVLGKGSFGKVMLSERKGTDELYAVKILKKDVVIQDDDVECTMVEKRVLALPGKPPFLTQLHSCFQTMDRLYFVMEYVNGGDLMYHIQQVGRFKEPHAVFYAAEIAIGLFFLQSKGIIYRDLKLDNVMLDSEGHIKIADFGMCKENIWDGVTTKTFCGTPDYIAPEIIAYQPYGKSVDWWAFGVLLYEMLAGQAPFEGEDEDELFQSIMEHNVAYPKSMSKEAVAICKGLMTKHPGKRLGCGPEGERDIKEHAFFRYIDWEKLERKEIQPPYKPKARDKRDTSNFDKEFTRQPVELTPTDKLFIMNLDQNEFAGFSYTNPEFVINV
Sequence of cAMP-dependent protein kinase type II-alpha regulatory subunit (P13861 whole entry): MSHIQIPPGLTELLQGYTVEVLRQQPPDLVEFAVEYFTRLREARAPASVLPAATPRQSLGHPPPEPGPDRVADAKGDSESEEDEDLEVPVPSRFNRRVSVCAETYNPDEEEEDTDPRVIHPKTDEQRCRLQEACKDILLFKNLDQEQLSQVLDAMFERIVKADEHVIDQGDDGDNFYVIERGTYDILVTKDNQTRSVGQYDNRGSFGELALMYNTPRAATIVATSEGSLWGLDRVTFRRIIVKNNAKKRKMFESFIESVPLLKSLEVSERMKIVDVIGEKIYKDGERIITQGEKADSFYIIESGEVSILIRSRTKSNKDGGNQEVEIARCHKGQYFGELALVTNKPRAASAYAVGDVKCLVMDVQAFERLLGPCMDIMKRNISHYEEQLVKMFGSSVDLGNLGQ
Sequence of Serine/threonine-protein kinase MRCK alpha (Q5VT25 whole entry): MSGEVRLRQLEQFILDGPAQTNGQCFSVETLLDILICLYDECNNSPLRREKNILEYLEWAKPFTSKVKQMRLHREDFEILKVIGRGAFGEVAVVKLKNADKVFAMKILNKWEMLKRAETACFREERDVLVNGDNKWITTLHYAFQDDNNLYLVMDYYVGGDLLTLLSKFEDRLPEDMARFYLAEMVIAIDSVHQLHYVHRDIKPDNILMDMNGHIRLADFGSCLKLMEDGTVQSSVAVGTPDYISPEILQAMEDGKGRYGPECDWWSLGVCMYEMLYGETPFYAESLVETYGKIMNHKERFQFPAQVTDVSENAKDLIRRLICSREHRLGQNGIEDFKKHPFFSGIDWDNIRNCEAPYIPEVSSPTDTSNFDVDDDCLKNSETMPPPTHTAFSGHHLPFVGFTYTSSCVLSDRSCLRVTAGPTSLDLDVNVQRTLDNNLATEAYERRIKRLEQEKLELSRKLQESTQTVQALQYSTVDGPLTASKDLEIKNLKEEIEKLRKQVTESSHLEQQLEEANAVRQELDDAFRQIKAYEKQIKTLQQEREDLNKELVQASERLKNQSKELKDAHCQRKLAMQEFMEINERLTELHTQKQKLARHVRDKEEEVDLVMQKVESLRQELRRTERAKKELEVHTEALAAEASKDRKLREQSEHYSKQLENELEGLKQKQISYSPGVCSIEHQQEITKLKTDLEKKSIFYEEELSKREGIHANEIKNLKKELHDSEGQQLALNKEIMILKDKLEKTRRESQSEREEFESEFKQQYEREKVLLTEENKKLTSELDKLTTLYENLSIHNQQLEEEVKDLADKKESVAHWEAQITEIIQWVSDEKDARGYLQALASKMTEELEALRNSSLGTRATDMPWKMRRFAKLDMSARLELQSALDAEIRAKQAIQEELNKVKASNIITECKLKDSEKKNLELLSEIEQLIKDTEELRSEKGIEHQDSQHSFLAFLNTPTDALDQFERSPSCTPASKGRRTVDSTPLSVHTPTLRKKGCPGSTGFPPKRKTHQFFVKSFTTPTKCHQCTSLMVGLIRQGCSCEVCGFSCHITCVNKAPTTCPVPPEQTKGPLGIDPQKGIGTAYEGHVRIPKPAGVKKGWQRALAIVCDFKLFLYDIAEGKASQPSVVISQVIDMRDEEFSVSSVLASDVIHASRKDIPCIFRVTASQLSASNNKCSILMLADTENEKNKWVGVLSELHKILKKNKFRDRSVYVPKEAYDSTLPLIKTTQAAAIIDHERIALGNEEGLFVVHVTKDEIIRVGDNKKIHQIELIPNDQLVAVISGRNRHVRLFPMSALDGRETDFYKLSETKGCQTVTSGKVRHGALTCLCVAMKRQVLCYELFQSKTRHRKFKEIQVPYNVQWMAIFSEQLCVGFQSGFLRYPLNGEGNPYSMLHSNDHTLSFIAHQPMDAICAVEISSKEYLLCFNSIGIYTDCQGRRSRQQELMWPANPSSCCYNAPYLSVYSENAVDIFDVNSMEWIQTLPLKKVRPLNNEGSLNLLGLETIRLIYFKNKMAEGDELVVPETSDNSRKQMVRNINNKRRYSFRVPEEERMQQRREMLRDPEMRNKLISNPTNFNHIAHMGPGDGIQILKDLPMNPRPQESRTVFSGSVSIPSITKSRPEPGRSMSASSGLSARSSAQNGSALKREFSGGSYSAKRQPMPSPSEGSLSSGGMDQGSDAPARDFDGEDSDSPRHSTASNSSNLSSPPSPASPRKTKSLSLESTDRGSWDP
Sequence of Serine/threonine-protein kinase 10 (O94804 whole entry): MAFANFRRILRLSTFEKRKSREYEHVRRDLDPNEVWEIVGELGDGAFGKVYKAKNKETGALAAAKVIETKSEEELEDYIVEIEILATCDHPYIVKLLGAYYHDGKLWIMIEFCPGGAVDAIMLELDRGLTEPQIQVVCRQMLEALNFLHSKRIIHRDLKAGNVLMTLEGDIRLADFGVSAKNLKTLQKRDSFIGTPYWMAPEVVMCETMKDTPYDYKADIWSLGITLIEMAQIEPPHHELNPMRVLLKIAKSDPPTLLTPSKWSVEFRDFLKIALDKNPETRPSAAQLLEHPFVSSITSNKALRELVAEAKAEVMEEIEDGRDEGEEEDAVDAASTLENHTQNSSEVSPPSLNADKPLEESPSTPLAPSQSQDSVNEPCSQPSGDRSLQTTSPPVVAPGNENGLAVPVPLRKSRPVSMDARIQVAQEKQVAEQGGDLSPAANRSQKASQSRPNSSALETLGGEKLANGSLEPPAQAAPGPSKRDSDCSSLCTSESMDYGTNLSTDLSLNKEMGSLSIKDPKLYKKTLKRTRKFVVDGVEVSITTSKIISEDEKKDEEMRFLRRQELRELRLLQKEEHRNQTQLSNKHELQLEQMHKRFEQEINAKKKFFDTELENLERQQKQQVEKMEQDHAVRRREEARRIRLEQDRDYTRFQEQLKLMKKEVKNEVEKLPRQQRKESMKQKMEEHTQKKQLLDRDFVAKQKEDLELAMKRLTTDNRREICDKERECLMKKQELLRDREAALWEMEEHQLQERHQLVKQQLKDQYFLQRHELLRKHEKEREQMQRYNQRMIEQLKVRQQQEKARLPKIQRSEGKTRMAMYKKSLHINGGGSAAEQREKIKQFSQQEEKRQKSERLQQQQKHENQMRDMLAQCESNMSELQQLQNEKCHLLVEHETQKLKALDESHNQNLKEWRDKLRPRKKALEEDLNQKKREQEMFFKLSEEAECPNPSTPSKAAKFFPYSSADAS
Sequence of Casein kinase I isoform delta (P48730 whole entry, canonical isoform): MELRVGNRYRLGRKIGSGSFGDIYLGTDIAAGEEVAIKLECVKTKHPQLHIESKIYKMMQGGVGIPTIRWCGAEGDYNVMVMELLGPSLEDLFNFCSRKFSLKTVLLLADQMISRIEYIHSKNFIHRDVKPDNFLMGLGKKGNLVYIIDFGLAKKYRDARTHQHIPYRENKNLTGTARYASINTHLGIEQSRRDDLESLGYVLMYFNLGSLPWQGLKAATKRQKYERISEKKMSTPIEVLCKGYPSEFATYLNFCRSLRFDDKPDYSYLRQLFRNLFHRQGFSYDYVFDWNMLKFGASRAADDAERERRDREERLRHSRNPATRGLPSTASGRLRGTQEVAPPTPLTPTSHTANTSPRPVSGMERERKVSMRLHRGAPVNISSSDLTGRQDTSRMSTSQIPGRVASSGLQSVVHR

SMILES | Kd [1] | Kd [2] | Kd [3] | Kd [4] | Kd [5] | Kd [6] | Kd [7] | Kd [8] | Kd [9] | Kd [10] | Kd [11] | Kd [12]
CO[C@H]1C[C@@H]2CC[C@@H](C)[C@@](O)(O2)C(=O)C(=O)N2CCCC[C@H]2C(=O)O[C@H]([C@H](C)C[C@@H]2CC[C@@H](O)[C@H](OC)C2)CC(=O)[C@H](C)/C=C(\C)[C@@H](O)[C@@H](OC)C(=O)[C@H](C)C[C@H](C)/C=C/C=C/C=C/1C [SIROLIMUS] | > 30 µM (inactive) | > 30 µM (inactive) | > 30 µM (inactive) | > 30 µM (inactive) | > 30 µM (inactive) | > 30 µM (inactive) | > 30 µM (inactive) | > 30 µM (inactive) | > 30 µM (inactive) | > 30 µM (inactive) | > 30 µM (inactive) | > 30 µM (inactive)
CCS(=O)(=O)c1cccc(-c2cc(C(=O)NC3CCN(C)CC3)c(C)c3[nH]c4ncc(C)cc4c23)c1 [TAK-901] | > 30 µM (inactive) | > 30 µM (inactive) | > 30 µM (inactive) | > 30 µM (inactive) | 0.949 µM (active) | > 30 µM (inactive) | > 30 µM (inactive) | > 30 µM (inactive) | > 30 µM (inactive) | > 30 µM (inactive) | > 30 µM (inactive) | > 30 µM (inactive)
CO[C@H]1C[C@@H]2CC[C@@H](C)[C@@](O)(O2)C(=O)C(=O)N2CCCC[C@H]2C(=O)O[C@H]([C@H](C)C[C@@H]2CC[C@@H](OC(=O)C(C)(CO)CO)[C@H](OC)C2)CC(=O)[C@H](C)/C=C(\C)[C@@H](O)[C@@H](OC)C(=O)[C@H](C)C[C@H](C)/C=C/C=C/C=C/1C [TEMSIROLIMUS] | > 30 µM (inactive) | > 30 µM (inactive) | > 30 µM (inactive) | > 30 µM (inactive) | > 30 µM (inactive) | > 30 µM (inactive) | > 30 µM (inactive) | > 30 µM (inactive) | > 30 µM (inactive) | > 30 µM (inactive) | > 30 µM (inactive) | > 30 µM (inactive)
COc1cc2c(Nc3ccc(Cl)c(Cl)c3F)ncnc2cc1OC[C@@H]1C[C@@H]2CN(C)C[C@@H]2C1 [TESEVATINIB] | > 30 µM (inactive) | > 30 µM (inactive) | > 30 µM (inactive) | > 30 µM (inactive) | 1.91 µM (active) | > 30 µM (inactive) | > 30 µM (inactive) | > 30 µM (inactive) | > 30 µM (inactive) | > 30 µM (inactive) | > 30 µM (inactive) | > 30 µM (inactive)
O=C(Cc1ccc(-c2ccc(OCCN3CCOCC3)cc2)cn1)NCc1ccccc1 [TIRBANIBULIN] | > 30 µM (inactive) | > 30 µM (inactive) | > 30 µM (inactive) | > 30 µM (inactive) | > 30 µM (inactive) | > 30 µM (inactive) | > 30 µM (inactive) | > 30 µM (inactive) | > 30 µM (inactive) | > 30 µM (inactive) | > 30 µM (inactive) | > 30 µM (inactive)
O=C1NC(=O)[C@@H](c2cn3c4c(cccc24)CCC3)[C@@H]1c1c[nH]c2ccccc12 [TIVANTINIB] | > 30 µM (inactive) | > 30 µM (inactive) | > 30 µM (inactive) | > 30 µM (inactive) | > 30 µM (inactive) | > 30 µM (inactive) | > 30 µM (inactive) | > 30 µM (inactive) | > 30 µM (inactive) | > 30 µM (inactive) | > 30 µM (inactive) | > 30 µM (inactive)
Cc1cc(Nc2ncnc3ccc(NC4=NC(C)(C)CO4)cc23)ccc1Oc1ccn2ncnc2c1 [TUCATINIB] | > 30 µM (inactive) | > 30 µM (inactive) | > 30 µM (inactive) | > 30 µM (inactive) | > 30 µM (inactive) | > 30 µM (inactive) | > 30 µM (inactive) | > 30 µM (inactive) | > 30 µM (inactive) | > 30 µM (inactive) | > 30 µM (inactive) | > 30 µM (inactive)

The remaining lines, values ahead:

Kd [1] | Kd [2] | Kd [3] | Kd [4] | Kd [5] | Kd [6] | Kd [7] | Kd [8] | Kd [9] | Kd [10] | Kd [11] | Kd [12] | SMILES
> 30 µM (inactive) | > 30 µM (inactive) | > 30 µM (inactive) | > 30 µM (inactive) | > 30 µM (inactive) | > 30 µM (inactive) | > 30 µM (inactive) | > 30 µM (inactive) | > 30 µM (inactive) | > 30 µM (inactive) | > 30 µM (inactive) | > 30 µM (inactive) | C[C@@H](NC(=O)c1ncnc(N)c1Cl)c1ncc(C(=O)Nc2cc(C(F)(F)F)c(Cl)cn2)s1 [TOVORAFENIB]
> 30 µM (inactive) | > 30 µM (inactive) | > 30 µM (inactive) | > 30 µM (inactive) | 0.379 µM (active) | > 30 µM (inactive) | 1.39 µM (active) | > 30 µM (inactive) | > 30 µM (inactive) | > 30 µM (inactive) | > 30 µM (inactive) | > 30 µM (inactive) | CC(C)c1cc(CNc2nc(Nc3cc(C4CC4)[nH]n3)cc(N3CCN(C)CC3)n2)on1 [XL-228]
> 30 µM (inactive) | > 30 µM (inactive) | 4.32 µM (active) | > 30 µM (inactive) | 9.95 µM (active) | 2.01 µM (active) | > 30 µM (inactive) | > 30 µM (inactive) | > 30 µM (inactive) | > 30 µM (inactive) | > 30 µM (inactive) | 2.38 µM (active) | CN1C/C=C/CCOc2cccc(c2)-c2ccnc(n2)Nc2cccc(c2)C1 [ZOTIRACICLIB]
